The source of these data is publication PMC9322052, “Synthesis and Biological Activity Screening of Newly Synthesized Trimethoxyphenyl-Based Analogues as Potential Anticancer Agents” (Molecules, 2022).

Test [1] relates to normal liver cell line HL-7702. Briefly: MTT cytotoxicity assay, normal liver cells. The settings on record: Homo sapiens, L02, 24 h treatment, mean ± SE. The format is cell-based. The protocol:
All the newly synthesized analogs were evaluated for their in vitro cytotoxicity against the hepatocellular carcinoma HepG2 cell line. Podo was utilized as a reference control in the current study. […] The N-phenyl triazinone derivative 9 was further investigated for its cytotoxic effects against normal liver cell line HL-7702.
MTT colorimetric assay was carried out to investigate the impact of the newly synthesized compounds 2–11 on hepatocellular carcinoma (HepG2) and normal liver cell line (HL-7702) cell lines. See Section 3.3.1 in Supplementary Material.
(§1) 3.3.1. Cytotoxic activity evaluation
To measure the cytotoxic activity of the synthesized derivatives 2a-11 in hepatocel-lular carcinoma (HepG2) cell line (ATCC Cat No. HB-8065) as well as normal human liver cell line HL-7702 (ATCC Cat. No. 77402), cell viability assay was assessed using MTT assay method. Cells at density of 1 x 104 were seeded in a 96-well plate at 37 °C for 24 h under 5% CO2. […] The color inten-sity of the formazan product, which represents the growth condition of the cells, is quan-tified by using an ELISA plate reader (EXL 800, USA) at 570 nm absorbance. […]
Compounds 9, 10 and 11 were evaluated for their tubulin inhibitory activity levels according to the manufacturer’s instructions using # abcam Human Beta-tubulin simplestep […]
3.3.5. […] The samples were immediately analyzed using cell […]
Background: Formazan colour is commonly taken as a measure of viable cells.

For another test, the system named is Bcl-2. Briefly: ELISA quantification of Bcl-2 level. The settings on record: HepG2, 1.38 μM (IC50), 48 h. It is filed as cell-based, human. The protocol:
Compound 9 was screened for its ability to activate p53 and Bax as well as downregulate the level of Bcl-2 to investigate the mechanistic apoptotic pathway that catalyzed the apoptosis process. HepG2 cells were treated with compound 9 at a concentration equal to its IC50 in μM, and the level of p53, Bax, and Bcl-2 was quantized using ELISA analysis. The results obtained for compound 9 show the increase in the level of p53 and Bax by 8.91- and 4.50-fold, respectively, compared with the negative control samples.
Apoptotic markers (p53, Bax and Bcl-2) were measured in HepG2 cells using ELISA analysis according to the manufacturer’s directions. See Section 3.3.6 in Supplementary Material.
Figure 6 (A) The quantification of p53. (B) The quantification of Bax. (C) The quantification of Bcl-2. HepG2 cells were treated with 1.38 μM of compound 9 for 48 h and apoptotic markers were determined by ELISA assay.
as §1
To measure the cytotoxic activity of the synthesized derivatives 2a-11 in hepatocel-lular carcinoma (HepG2) cell line (ATCC Cat No. HB-8065) as well as normal human liver cell line HL-7702 (ATCC Cat. No. 77402), cell viability assay was assessed using MTT assay method. […] The color inten-sity of the formazan product, which represents the growth condition of the cells, is quan-tified by using an ELISA plate reader (EXL 800, USA) at 570 nm absorbance. […]
(In general: An ELISA detects its analyte on a solid surface through an enzyme-linked reagent.)

Take `COc1ccc(C2=N/C(=C\c3cc(OC)c(OC)c(OC)c3)C(=O)NN2c2ccccc2)cc1OC` [Compound 9, (Z)-3-(3,4-Dimethoxyphenyl)-2-Phenyl-5-(3,4,5-Trimethoxybenzylidene)-1,2-Dihydro-1,2,4-Triazin-6(5H)-one]: in test [1], the IC50 (as a rule, the concentration at which inhibition is half-maximal) turned out to be 29.1 ± 2.03 µM. Further, the “decrease in level of Bcl-2 compared with negative control” value in the test with Bcl-2 worked out at 5.58 fold.
